Results from patent publication US20050282818A1, “Ubiquitin ligase inhibitors” (Rigel Pharmaceuticals, Inc., priority 2004, published 2005).

How the values were obtained:
APC11/APC2 = APC11/APC2 (Homo sapiens, UniProt Q9NYG5+Q9UJX6); assay: APC-11/APC-2 ligase assay (APC auto ubiquitination); type: biochemical; details: APC assay
Outline: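 His-tagged APC was captured on nickel plates with human E1 (5 ng/well), UbcH5c (20 ng/well), APC (100 ng/well) and Flag-ubiquitin (100 ng/well) in a Tris pH 7.6 reaction buffer containing 2.5 mM ATP, for 1 hour at room temperature. Read-out was anti-Flag/HRP chemiluminescence. IC50 was set against a DMSO control, typically from 6 or 8 concentrations.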

[1] = system: ICAM-1 expression in A549 cells; assay: ICAM assay (IL-1 induced ICAM-1/CD54 expression in A549 cells); type: cell-based, human
Outline: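 Luminescent immunostaining (anti-CD54, then anti-mouse IgG, 1 h) quantifies ICAM-1 on A549 cells induced 4 h at 37° C by IL-1 (4 μl of 25 ng/ml added). Compound is added 1 h before the cytokine to cells plated overnight at 10,000 per well.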

Sequence of APC11/APC2 (Q9NYG5 whole entry): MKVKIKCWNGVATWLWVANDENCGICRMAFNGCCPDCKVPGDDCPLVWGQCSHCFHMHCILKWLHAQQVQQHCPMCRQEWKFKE
Sequence of APC11/APC2 (Q9UJX6 whole entry): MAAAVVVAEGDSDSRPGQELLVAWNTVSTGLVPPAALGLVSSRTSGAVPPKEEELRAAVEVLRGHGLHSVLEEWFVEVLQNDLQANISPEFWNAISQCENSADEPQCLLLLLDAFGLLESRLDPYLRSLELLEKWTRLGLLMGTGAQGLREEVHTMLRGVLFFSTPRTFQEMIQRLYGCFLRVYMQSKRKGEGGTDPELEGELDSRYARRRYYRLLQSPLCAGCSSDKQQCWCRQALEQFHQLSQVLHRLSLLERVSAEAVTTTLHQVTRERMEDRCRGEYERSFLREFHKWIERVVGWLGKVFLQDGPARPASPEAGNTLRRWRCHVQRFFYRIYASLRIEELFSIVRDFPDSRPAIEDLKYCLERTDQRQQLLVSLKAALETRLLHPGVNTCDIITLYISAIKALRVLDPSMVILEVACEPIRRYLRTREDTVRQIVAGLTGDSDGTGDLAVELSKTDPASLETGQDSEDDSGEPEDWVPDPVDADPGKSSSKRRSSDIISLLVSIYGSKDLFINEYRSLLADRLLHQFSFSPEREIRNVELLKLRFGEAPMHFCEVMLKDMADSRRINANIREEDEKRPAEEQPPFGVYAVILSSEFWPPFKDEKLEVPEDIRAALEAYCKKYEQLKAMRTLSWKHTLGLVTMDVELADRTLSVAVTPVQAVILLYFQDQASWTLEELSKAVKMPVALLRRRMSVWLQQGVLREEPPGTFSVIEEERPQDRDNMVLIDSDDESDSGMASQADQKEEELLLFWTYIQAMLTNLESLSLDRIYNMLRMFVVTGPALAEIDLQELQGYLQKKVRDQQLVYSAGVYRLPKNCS

Row | SMILES | IC50 (APC11/APC2) [µM] | IC50 ([1]; Homo sapiens, A549, ICAM assay) [µM] | IC50 ([1]; ICAM assay) [µM]
1 | O=[N+]([O-])c1ccc(Sc2nc3ccccc3s2)c2nonc12 [compound 158, 4-(1,3-benzothiazol-2-ylthio)-7-nitro-2,1,3-benzoxadiazole] | 1 to 20 | ≥ 20 | 
2 | O=S(=O)(c1c(Cl)ccc2nonc12)N1CCN(c2ncc(C(F)(F)F)cc2Cl)CC1 [compound 179, 5-chloro-4-({4-[3-chloro-5-(trifluoromethyl)pyridin-2-yl]piperazin-1-yl}sulfonyl)-2,1,3-benzoxadiazole] | 1 to 20 | ≥ 20 | 
3 | O=[N+]([O-])c1ccc(-c2cccc(C(F)(F)F)c2)c2nonc12 [compound 309, 4-Nitro-7-[3-(trifluoromethyl)phenyl]-2,1,3-benzoxadiazole] | 1 to 20 | 1 to 20 | 
4 | Cc1cccc(-c2ccc([N+](=O)[O-])c3nonc23)c1 [compound 310, 4-(3-Methylphenyl)-7-nitro-2,1,3-benzoxadiazole] | 1 to 20 | 1 to 20 | 
5 | CC(C)(C)c1ccc(-c2ccc([N+](=O)[O-])c3nonc23)cc1 [compound 313, 4-(4-Tert-butylphenyl)-7-nitro-2,1,3-benzoxadiazole] | 1 to 20 | 1 to 20 | 
6 | O=[N+]([O-])c1ccc(N2CCN(c3ncc(C(F)(F)F)cc3Cl)CC2)c2nonc12 [compound 315, 4-{4-[3-chloro-5-(trifluoromethyl)pyrindin-2-yl]piperazin-1-yl}-7-nitro-2,1,3-benzoxadiazole] | < 1 |  | 
7 | O=S(=O)(Nc1ccc2cn[nH]c2c1)c1c(O)ccc2nonc12 [compound 339, 5-hydroxy-N-(1H-indazol-6-yl)2,1,3-benzoxadiazole-4-sulfonamide] | ≥ 20 | ≥ 20 | 
8 | O=S(=O)(c1c(N2CCC(Oc3ccccc3C(F)(F)F)CC2)ccc2nonc12)N1CCC(Oc2ccccc2C(F)(F)F)CC1 [compound 340, 5-[4-(2-{trifluoromethyl}phenoxy)piperidin-1-yl]-4-{[4-(2-{trifluoromethyl}phenoxy)piperidin-1-yl]sulfonyl}-2,1,3-benzoxadiazole] | ≥ 20 | ≥ 20 | 
9 | COc1cc(NS(=O)(=O)c2ccc(Cl)c3nonc23)c(OC)cc1Cl [compound 341, 7-chloro-N-(4-chloro-2,5-dimethoxyphenyl)-2,1,3-benzoxadiazole-4-sulfonamide] | ≥ 20 | 1 to 20 | 
10 | COc1cc(Nc2ccc(S(=O)(=O)Nc3cc(OC)c(Cl)cc3OC)c3nonc23)c(OC)cc1Cl [compound 342, N-(4-chloro-2,5-dimethoxyphenyl)-7-([4-chloro-2,5-dimethoxyphenyl]amino)-2,1,3-benzoxadiazole-4-sulfonamide] | 1 to 20 |  | 1 to 20
11 | COc1cc(NS(=O)(=O)c2c(Cl)ccc3nonc23)c(OC)cc1Cl [compound 343, 5-chloro-N-(4-chloro-2,5-dimethoxyphenyl)-2,1,3-benzoxadiazole-4-sulfonamide] | ≥ 20 | 1 to 20 | 
12 | COc1cc(Nc2ccc3nonc3c2S(=O)(=O)Nc2cc(OC)c(Cl)cc2OC)c(OC)cc1Cl [compound 344, N-(4-chloro-2,5-dimethoxyphenyl)-5-([4-chloro-2,5-dimethoxyphenyl]amino)-2,1,3-benzoxadiazole-4-sulfonamide] | ≥ 20 | ≥ 20 | 
